The source of these data is patent EP0197013A1, “Substituted benzimidazoles for the manufacture of a medicament for treatment of intestinal inflammatory diseases” (Aktiebolaget Hässle, priority 1985, dated 1986).

The structures appear in SMILES notation.

The target of the experiment is T1, colon K^+-ATPase (Oryctolagus cuniculus, UniProt Q9TV52).
T1 construct: Apical brush-border membranes were prepared from rabbit descending colon epithelium; from tissue; host or cells: rabbit descending colon epithelium, apical brush-border membrane fraction (Percoll gradient)
Nature of the experiment: Inhibition of colon K+-ATPase by acid decomposed omeprazole (Pi liberated from ATP, apical brush-border membranes of descending colon). Further details: activity of the colonic K^+-ATPase enzyme: dose or concentration left out as unconfirmed. The class given is biochemical, rabbit. As for the experimental part:
In order to evaluate the inhibitory effect on colonic K^+-ATPase of the substituted benzimidazoles with the general formula I, we have tested one compound, namely omeprazole on an enzyme preparation from the descending colon of the rabbit (cf. below).
In the case of omeprazole the most efficient way to form the active degradation products is to decompose it in acid solution. Thus, omeprazole was decomposed in acid before it was added to the enzyme.
In order to isolate and characterize the ouabain insensitive potassium- stimulated ATPase from rabbit descending colon the following preparation was made.
Apical brush-border membranes were prepared from rabbit descending colon epithelium, by the method of Gustin M.C., and Goodman D.B.P., J. Biol. Chem. 256, 10651-10656 (1981), with some modifications.
Two albino male rabbits, weighing 2-3 kg, were killed by injection of mebumal into the ear vein. A section of colon, 30-35 cm in length, measured from rectum, was removed, rinsed free of its content with icecold 0.15 M NaCl and everted over a glassrod. The tissue was then divided in two pieces. These everted segments were tied at one end, filled with an icecold buffer containing 30 mM NaCl, 5mM Na3EDTA and 8 mM Hepes/Tris pH 7.6, using a 20 ml syringe without a needle, until they became distended, at which point the other end was tied. The intestines were transferred to a 500 ml centrifuge tube containing the same cold pH 7.6 buffer. The tube was placed in an icebox, which was shaken for 2 hours at 260 osc./min. Then the incubation medium was filtered through a nylon net of 200 µm mesh, to remove debris.
Sedimentation of epithelial cells was performed by centrifugation at 500xg for 10 minutes at 4°C, in a Beckman J2-21 centrifuge. The pelleted cells were resuspended in 250 ml of a solution containing 1mM Na3EDTA, adjusted to pH 8.3 with HC1 at 4°C, just before use. The cells were then disrupted, by a 28 second homogenization in a Waring Blendor. The resulting homogenate was centrifuged for 10 minutes at 4°C with a centrifugal force of 750xg in a Beckman J2-21 centrifuge with a JA-17 rotor, in order to sediment brush-borders. Pellets were combined, resuspended in 40 ml of the medium containing 1mM Na3EDTA and recentrifuged as described above. The brush-border pellet (P2) was resuspended in 33.3 ml of the same medium, 2.7 ml density gradient medium (Percoll, Pharmacia) was added by mixing. The Percoll medium was allowed to generate a density gradient during 22 minutes at 40 OOOxg in a Beckman J2-21 centrifuge, in which the membranes sedimented into bands. Nine fractions (Gl-G9) of 4 ml each, were carefully removed from the gradient with a Pasteur-pipette. The fractions were subjected to centrifugation in a Kontron TGA-65 centrifuge with a TST 60 swing-out rotor at 50 000 rpm for 45 minutes, to sediment the Percoll. The material collected on the top of the Percoll pellet was homogenized by a glass-teflon homogenizer with 5-10 up-down strokes at about 1500 rpm.
ATPase activity was determined as the amount of Pi (free phosphate) liberated from ATP by the enzyme per unit of time.
The assay medium contained 2mM ATP, 2mM MgCl2, 18.4 mM Pipes/Tris pH 7.4 and membrane protein in the presence or absence of 10 mM KC1 in a final volume of 1 ml. In some experiments, 10^-5 M of the specific Na^+,K^+-ATPase inhibitor ouabain was present. The enzyme Na^+,K^+-ATPase is responsible for the active transport of Na^+ out from the cell into the plasma as well as for the transport of K^+ into the cell from the plasma. Unless otherwise mentioned, the preparation was preincubated with ouabain on ice for 10 minutes before start of the reaction, which was initiated with ATP, mixed and incubated for suitable time at 37°C. The reaction was stopped by the addition of 1 ml icecold 12 per cent perchloric acid, containing 3.6 per cent ammoniummolybdate. […]

T1 sequence (Q9TV52 whole entry, other chains not shown): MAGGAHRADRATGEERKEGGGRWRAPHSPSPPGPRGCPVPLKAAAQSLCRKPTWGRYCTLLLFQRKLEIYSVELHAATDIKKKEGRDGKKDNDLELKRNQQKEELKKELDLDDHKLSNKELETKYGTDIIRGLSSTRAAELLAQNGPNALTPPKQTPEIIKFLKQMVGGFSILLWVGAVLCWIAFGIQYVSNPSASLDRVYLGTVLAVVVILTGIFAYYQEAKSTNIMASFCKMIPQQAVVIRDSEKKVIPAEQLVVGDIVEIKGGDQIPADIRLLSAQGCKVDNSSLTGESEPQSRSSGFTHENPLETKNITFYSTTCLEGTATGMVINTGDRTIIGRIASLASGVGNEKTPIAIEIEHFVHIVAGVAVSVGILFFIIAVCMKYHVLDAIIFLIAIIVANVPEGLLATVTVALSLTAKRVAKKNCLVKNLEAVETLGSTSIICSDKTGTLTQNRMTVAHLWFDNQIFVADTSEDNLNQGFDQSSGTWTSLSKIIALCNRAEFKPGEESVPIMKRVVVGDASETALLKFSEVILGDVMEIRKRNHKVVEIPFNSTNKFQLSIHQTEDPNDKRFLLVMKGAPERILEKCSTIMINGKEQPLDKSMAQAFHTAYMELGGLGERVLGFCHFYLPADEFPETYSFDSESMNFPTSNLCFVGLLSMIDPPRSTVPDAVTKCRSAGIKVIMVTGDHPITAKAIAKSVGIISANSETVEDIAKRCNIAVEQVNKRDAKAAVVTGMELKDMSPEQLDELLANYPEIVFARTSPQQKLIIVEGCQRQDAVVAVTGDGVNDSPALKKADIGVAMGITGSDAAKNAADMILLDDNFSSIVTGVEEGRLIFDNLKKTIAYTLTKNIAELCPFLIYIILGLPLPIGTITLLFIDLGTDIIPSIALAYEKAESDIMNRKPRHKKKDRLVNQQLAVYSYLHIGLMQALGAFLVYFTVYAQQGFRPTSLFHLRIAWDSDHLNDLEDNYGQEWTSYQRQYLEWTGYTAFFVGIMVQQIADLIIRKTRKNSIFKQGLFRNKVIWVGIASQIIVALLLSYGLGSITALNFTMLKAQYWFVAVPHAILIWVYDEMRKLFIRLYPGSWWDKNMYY

In the case of `COc1ccc2[nH]c([S+]([O-])Cc3ncc(C)c(OC)c3C)nc2c1` (stereo not drawn) [omeprazole], the remaining activity at 1 µM (Initial concentration of omeprazole in the break-down mixture 1.0 µM, omeprazole decomposed at pH 5.0, 120 minutes, 37°C, membranes incubated 10 minutes at 37°C, read-out: Remaining enzyme activity % Mean value ± S.D.) came to 100 ± 5.9%. Also, under “Initial concentration of omeprazole in the break-down mixture 2.5 µM, omeprazole decomposed at pH 5.0, 120 minutes, 37°C, membranes incubated 10 minutes at 37°C, read-out: Remaining enzyme activity % Mean value ± S.D.”, the remaining activity at 2.5 µM amounted to 72.4 ± 6%. Further, where the note is “Initial concentration of omeprazole in the break-down mixture 5.0 µM, omeprazole decomposed at pH 5.0, 120 minutes, 37°C, membranes incubated 10 minutes at 37°C, read-out: Remaining enzyme activity % Mean value ± S.D.”, the remaining activity at 5 µM was 31.9 ± 6.7%. Besides, the remaining activity at 7.5 µM (Initial concentration of omeprazole in the break-down mixture 7.5 µM, omeprazole decomposed at pH 5.0, 120 minutes, 37°C, membranes incubated 10 minutes at 37°C, read-out: Remaining enzyme activity % Mean value ± S.D.) is 18.6 ± 5.5%. Further, for the setting “Initial concentration of omeprazole in the break-down mixture 10.0 µM, omeprazole decomposed at pH 5.0, 120 minutes, 37°C, membranes incubated 10 minutes at 37°C, read-out: Remaining enzyme activity % Mean value ± S.D.”, the remaining activity at 10 µM was 5.2 ± 3.2%. Moreover, the “activity of the colonic K^+-ATPase enzyme” value (mixture (acid decomposed omeprazole)) is reported as “almost completely inhibits”.
